Experimental findings from patent US20160324884A1, “TREATMENT OF DIABETES WITH PENTACYCLIC TRITERPENOID SAPONIN COMPOUNDS FROM SZECHUAN MELANDIUM ROOT” (priority 2013, published 2016) are described below.

Entries after “also recorded” stand apart in the source; their conditions may differ.

For one assay, the system named is T2DM rats. The assay can be described thus: Fasting glycemia in T2DM model rats (high-fat emulsion + STZ, Example 5). The class given is in vivo, SD rats. The text has this: 50 male SD rats (180-200 g, License NO. SCXK (BJ) 2011-0004, Beijing SPF Experimental Animal Technology Co. Ltd.) were adaptively bred for 1 week, and then used in the pharmacological experiment.
Animals were housed individually in wood-chip-bedded plastic cages and fed a standard laboratory chow. All the animals had ad libitum access to food and water.
50 SD rats were adaptively bred for 1 week, and then randomly assigned into 5 groups: The control group, model group, Compound (1) group, Compound (2) group and glucobay group (the positive group), 10 rats per group. All the animals were in a standard laboratory diet. Control and model group animals were hypodermically injected with sterile water, test compound treatment groups were subcutaneously injected with the Compounds (1) and (2), and the positive group was administrated glucobay solution by gavage. All the animals were administrated at 9 am for 2 weeks, and the dose volume is 10 ml/kg BW.
The Compounds (1) and (2) were dissolved into sterile water, and sterilized with filtration, Sc. Glucobay was dissolved into sterile water, lg. Animals in the control and model groups were injected with sterile water (10 ml/kg BW), Sc. All the animals were treated at 9 am for 2 weeks (14 days).
All rats except the control group were administrated intragastrically with the high-fat emulsion (10 ml/kg) and weighed the body weight weekly. After weeks of administration, rats were intraperitoneally injected with streptozotocin (STZ, dissolved in citric acid-citrate sodium solution, pH 4.2, freshly prepared and used instantly, and store away from light) (30mg/kg). 4 days later, blood glucose level in rats was measured by tail blood test. Diabetes was defined as fasting blood glucose level>11.1 mmol/Lin in this experiment.
The blood glucose level was measured before and after administration of the treatment compounds for 2 weeks, respectively. The animals were fasted overnight and tail blood samples were taken. Fasting glycemia was measured by using One Touch ULTRA Glucometer or kits.

For assay [1], the system named is KK^Ay mice. Kind of assay: Hepatic and muscle glycogen in KK^Ay mice (Example 3). The class given is in vivo. Particulars: 2.0 mg/kg Sc. An excerpt:
(§1) 60 KK^Ay mice were adaptively bred for 1 week, and then randomly assigned into 6 groups: Model group, Compound (1) group, Compound (2) group, Compound (3) group, Compound (4) group, and metformin group, 10 mice per group. 10 normal C57BL/6 mice were used for the control group. KK^Ay mice were in a high-fat diet, and the control normal mice were in a normal control diet. The control and model groups were hypodermically injected with sterile water, the 6 medicated groups mice were subcutaneously injected with […] Wacao saponins, (Compounds (1), (2), (3) and (4)) respectively, and the positive group was administered metformin by gavage. All mice were administrated at 9 am for 2 weeks and the administration volume is 10 ml/kg BW.
(§2) The body weight, food and water intake of each mouse was measured and recorded weekly throughout the course of the experiment. At the end of the experiment, collected the blood and separated serum, fasting blood glucose, insulin levels and insulin sensitivity index (ISI) were measured or calculated in each group. Liver, skeletal muscles of mice in each group were taken and weighed for detecting glycogen levels of the hepatic and muscles after mice being killed.
(§3) Compound (1), (2), (3) and (4) were respectively dissolved into sterile water, and sterilized with filtration for Sc. to the medication groups. The metformin was dissolved into sterile water for lg. to the positive control group. Control and model groups animals were injected with sterile water (10 ml/kg BW), Sc. All the animals were treated daily at 9 am for 2 weeks (14 days).
Blood detection: Blood glucose was measured weekly. Overnight fasting glycemia level was measured with One Touch ULTRA Glucometer for the tail blood test. At the end of the experiment, blood serum was collected for measuring levels of fasting blood glucose and insulin, and the insulin sensitivity index (ISI) was calculated. At the same time, hepatic tissues and skeletal muscles of mice were taken out to determine levels of hepatic and muscle glycogen by detection kits.

For assay [2], the system named is KK^Ay mice. Kind of assay: Body weight, food and water intake in KK^Ay mice (Example 3). In kind it is in vivo. Particulars: vs model group.
Description: 60 male KK^Ay mice (12 weeks of age, License NO. SCXK (BJ) 2009-0015, Beijing Huafukang Biology Technology Co. Ltd.) and 10 normal male C57BL/6 mice (12 weeks of age, License NO. SCXK (BJ) 2009-0015, Beijing Huafukang Biology Technology Co. Ltd.) were adaptively bred for one week, and then used in the following experiment.
The animals were housed individually in wood-chip-bedded plastic cages. Germ-free and high-fat diets (Beijing Huafukang Biology Technology Co. Ltd.) were used to feed the KK^Ay mice. All the animals had free access to food and water.
as §1, §2, §3
Measurement of food and water intake: 24 hours' food and water intake were measured by gravimetry once a week. It should be paid attention to recycling leakage of small forage into the feed box to ensure the accuracy of food intake.
Determination of body weight: The body weight of mice was measured and recorded once a week.
Results are shown as means±SD. Statistical analysis data were analyzed by using SPSS 10.0 software. Data were evaluated with analysis of variance.

The test system of assay [3] is KK^Ay mice. Kind of assay: Effects of Wacao saponins on glycemia in KK^Ay T2DM mice (Example 2). The class given is in vivo. The text has this:
80 male KK^Ay mice (12 weeks of age, License NO. SCXK (BJ) 2009-0015, Beijing Huafukang Biology Technology Co. Ltd.) and 10 male normal C57BL/6 mice (12 weeks of age, License NO. SCXK (BJ) 2009-0015, Beijing Huafukang Biology Technology Co. Ltd.) were adaptively bred for one week, and then used in the pharmacological experiment.
The animals were housed individually in wood-chip-bedded plastic cages. Germ-free and high-fat diets (Beijing Huafukang Biology Technology Co. Ltd.) were used to feed the KK^Ay mice, and the standard laboratory chows were used to feed normal C57BL/6 mice. All the animals had free access to food and water.
80 KK^Ay mice were adaptively bred for 1 week, and then randomly assigned into 8 groups: Model group, Compound (1) group, Compound (2) group, Compound (3) group, Compound (4) group, Compound (7) group, Compound (8) group and metformin group, 10 mice per group. 10 normal C57BL/6 mice were used as the control group. KK^Ay mice were fed with the high-fat diet, and the control group was fed with the normal control diet. The control and model groups were hypodermically injected with sterile water, 6 medicated groups were hypodermically injected with 6 kinds of Wacao saponins, the Compounds (1), (2), (3), (4), (7) and (8), and the positive group (metformin group) was irrigated per oral. All groups were administrated at 9 am for 2 weeks. The administrating volume is 10 ml/kg BW and the administration dosage is shown in Table3.
All mice of the fasting tail blood glucose level were measured weekly using One Touch ULTRA Glucometer (Life Scan Johnson and Johnson, USA).
Each compound of Wacao saponins was dissolved into sterile water and sterilized with filtration for Sc. The metformin was dissolved into sterile water for lg. The control and model group mice were injected with sterile water, Sc. All the animals were treated at 9 am for 2 weeks.
Overnight fasting tail blood glucose level was measured weekly using One Touch ULTRA Glucometer and measured for twice.
Each group was administrated for 2 weeks (14 days) and then the experiment was terminated.
Results are expressed as means±SD. Statistical analysis were analyzed by using SPSS 10.0 software. Data were evaluated with analysis of variance.

On to `CC(=O)OC1C(OC(=O)/C=C/c2ccc(C)cc2)C(C)OC(OC(=O)[C@]23CCC(C)(C)C[C@H]2C2C=C[C@@H]4[C@@]5(C)CC[C@H](OC6OC(C(=O)O)C(O)C(OC7OCC(O)C(O)C7O)C6OC6OC(CO)C(O)C(O)C6O)[C@@](C)(C=O)[C@@H]5CC[C@@]4(C)[C@]2(C)C[C@H]3O)C1OC1OC(C)C(O)C(O)C1O` (some centres unmarked) [Compound (1), sinocrassuloside VI], for which the “anti-hyperglycemia efficacy compared with glucobay” value in the assay with T2DM rats (4.0 mg/kg Sc vs glucobay 20 mg/kg lg, 2 weeks) is given as “much stronger than that of the glucobay”. For the same compound, the glycemia level entry in the assay on T2DM rats (4.0 mg/kg Sc, after 2 weeks, vs model group) is “significantly decreased”. Further, in the assay on KK^Ay mice [1] (2 weeks, comparison among compounds and with metformin, 2 mg/kg), the “enhancement of glycogen storage” value was “strongest activity of the function; also recorded: almost comparable to metformin”. For the same compound, the muscle glycogen level result with KK^Ay mice [1] (after 2 weeks, vs model group) is “stronger efficacy in raising levels muscle glycogen”. In the assay on KK^Ay mice [2] (2.0 mg/kg BW Sc, 2 weeks), the body weight growth result is given as “best effect of resistance on body weight growth”. The food intake entry with KK^Ay mice [2] (after 1 week, compounds 2.0 mg/kg Sc, metformin 500 mg/kg lg) is “decreased obviously”. Besides, in the assay on KK^Ay mice [3] (2.0 mg/kg BW Sc daily, after 1 week, vs model group), the “glycemia (fasting tail blood glucose), hypoglycemic activity” value was “best hypoglycemic activity”. Also, the “anti-hyperglycemia effect, compounds compared with each other” value in the assay with KK^Ay mice [3] (2.0 mg/kg BW Sc, 2 weeks, ranking) is “strongest anti-hyperglycemia effect”.
